Experimental data published in US20160115540A1, “PRODRUGS AND DRUGS” (Biogen MA Inc., priority 2013, published 2016).
Counter-ions that a name gives are not always drawn.

System: kidney
Assay: Transcriptional profiling on Affymetrix GeneChips, single dose, naïve mice: kidney
Format: in vivo, C57BL/6 mice
Settings: 100 DMF-vs-Veh, 2 h
Experimental: Treated mice were sacrificed at 2, 7, or 12 hours. Tissues (liver, spleen, kidney, jejunum, cortex, hippocampus, striatum and whole blood) were collected and analyzed by transcriptional profiling on mouse Affymetrix GeneChips.
Tissues (liver, spleen, kidney, jejunum, cortex, hippocampus, striatum and whole blood) were collected and analyzed by transcriptional profiling on mouse Affymetrix GeneChips.
Animals were exposed to CO2 and whole blood collected via cardiac puncture. Two 100 μl aliquots of whole blood were collected in 1.5 mL microcentrifuge tubes and snap frozen in liquid nitrogen. Peripheral (liver, spleen, kidney and jejunum) and CNS brain (cerebellum, hippocampus, striatum and cortex) tissues were harvested and snap frozen in liquid nitrogen, with special care taken to collect tissues of similar size and from the same location. All samples were stored at −80° C. until RNA extraction was conducted.
For RNA preparation, frozen tissues were placed in 2 mL RNAse-free 96-well blocks with 1.5 mL QIAzol Lysis Reagent (QIAgen) and a 3.2 mm stainless steel bead (BioSpec Products, Bartlesville, Okla.). Tissues were disrupted for four cycles of 45 seconds in a Mini-Beadbeater (Biospec Products). RNA was extracted in chloroform and the aqueous phase was mixed with an equal volume of 70% ethanol. Extracted RNA was applied to RNeasy 96 plates and purified by the spin method according to the manufacturer's protocol (RNeasy 96 Universal Tissue Protocol, QIAgen, Hilden Germany).
Automated sample amplifications and biotin labelings were carried out using the NuGEN Ovation RNA Amplification system V2 (Cat #3100), Ovation WB reagent (Cat #1300) and Encore Biotin module (Cat #4200) (NuGEN Technologies, Inc, San Carlos, Calif.) according to manufacturer's recommendations using an Arrayplex automated liquid handler (Beckman Coulter, Indianapolis, Ind.). Two micrograms of biotin labeled sscDNA probe were hybridized to Affymetrix GeneChip Affymetrix HT_MG-430_PM plate arrays with modified conditions as described in Allaire et al. Washing and staining of the hybridized arrays were completed as described in the GeneChip Expression analysis technical manual for HT plate arrays using the Genechip® Array Station (Affymetrix, Santa Clara, Calif.) with modifications as described in Allaire et al. The processed GeneChip® plate arrays were scanned using GeneTitan scanner (Affymetrix, Santa Clara, Calif.).
Affymetrix scans were subject to quality control (QC) measures. These tests included a visual inspection of the distribution of raw signal intensities and an assessment of RNA degradation, relative log expression (RLE), and normalized unsealed standard error (NUSE). All sample scans that passed these QC metrics were included in the analysis.
All CEL files were subjected to GC-content-based Robust Multi-array Average (GCRMA) normalization (version 2.20.0) (Irizarry R A, et al. Nucleic Acids Res 2003; 31:e15; Li C, et al. Genome Biol 2001; 2:[…]0032). Expression levels were log (base 2) transformed.
All calculations and analyses were carried out using R (version 2.11.1) and Bioconductor computational tools (Gentleman R. Springer Science+Business Media 2005).

`COC(=O)/C=C/C(=O)OC` [DMF, dimethyl fumarate] was tested, and the “FC 1200016B10Rik 1428654_PM_at” value was 1.59, the “FC 1200016B10Rik 1452859_PM_at” value was 1.62 and the “FC 1438879_PM_at” value was −1.61. For the same molecule, the “FC 1439292_PM_at” value was 2.14, the “FC 1440076_PM_at” value was 3.71 and the “FC 1440084_PM_at” value was −1.57. The “FC 1440304_PM_at” value was −1.68, the “FC 1440457_PM_at” value was 1.76 and the “FC 1440660_PM_at” value was −1.56. For the same molecule, the “FC 1441155_PM_at” value was 1.51, the “FC 1441360_PM_at” value was 1.55 and the “FC 1441413_PM_at” value was 1.88. The “FC 1441455_PM_at” value was 1.58, the “FC 1441482_PM_at” value was −2.08 and the “FC 1441484_PM_at” value was −1.79. For the same molecule, the “FC 1441518_PM_at” value was −1.67, the “FC 1441794_PM_at” value was −1.72 and the “FC 1442422_PM_at” value was 1.74. The “FC 1442483_PM_at” value was −1.59, the “FC 1442504_PM_at” value was −1.70 and the “FC 1442506_PM_at” value was 5.76. The “FC 1442671_PM_at” value was 1.55, the “FC 1442725_PM_at” value was −1.53 and the “FC 1442928_PM_at” value was 1.66. For the same molecule, the “FC 1443100_PM_at” value was −1.63, the “FC 1443109_PM_at” value was 1.69 and the “FC 1443289_PM_at” value was −1.65. For the same molecule, the “FC 1443335_PM_at” value was −1.78, the “FC 1443546_PM_at” value was 1.74 and the “FC 1443566_PM_at” value was −1.76. For the same molecule, the “FC 1443673_PM_x_at” value was 2.06, the “FC 1444021_PM_at” value was 3.24 and the “FC 1444057_PM_at” value was 1.75. The “FC 1444111_PM_at” value was −1.67, the “FC 1444212_PM_at” value was 1.57 and the “FC 1444227_PM_at” value was 1.56. For the same molecule, the “FC 1444265_PM_at” value was 1.93, the “FC 1445290_PM_at” value was −1.52 and the “FC 1445349_PM_at” value was −1.70. The “FC 1445600_PM_at” value was −1.65, the “FC 1445664_PM_at” value was −1.60 and the “FC 1446075_PM_at” value was −1.62. For the same molecule, the “FC 1446172_PM_at” value was 1.85, the “FC 1446621_PM_at” value was 1.74 and the “FC 1446921_PM_at” value was 1.58. For the same molecule, the “FC 1447172_PM_at” value was −1.61, the “FC 1447396_PM_at” value was −1.90 and the “FC 1447411_PM_at” value was 4.68. The “FC 1700012D14Rik 1438880_PM_at” value was −1.55, the “FC 1810013L24Rik 1431018_PM_at” value was 1.50 and the “FC 2200002K05Rik 1428400_PM_at” value was −1.79. For the same molecule, the “FC 2210403K04Rik 1428562_PM_at” value was 1.86, the “FC 2210416J07Rik 1432665_PM_at” value was −1.87 and the “FC 2410089E03Rik 1443422_PM_at” value was −1.72. For the same molecule, the “FC 2810029C07Rik 1428686_PM_at” value was −1.58, the “FC 2900011L18Rik 1432757_PM_at” value was 1.62 and the “FC 4833418N02Rik 1430686_PM_at” value was −1.51. For the same molecule, the “FC 4921509J17Rik 1430244_PM_at” value was 1.60, the “FC 4932416J16Rik 1430783_PM_at” value was −1.67 and the “FC 4933427G17Rik 1431905_PM_s_at” value was −1.65. The “FC 5830487K18Rik 1432625_PM_at” value was −1.90, the “FC 6430571L13Rik 1439669_PM_at” value was −1.85 and the “FC 9130221J17Rik (1443159_PM_at)” value was 9.22. The “FC 9530086O07Rik 1430392_PM_at” value was −1.52, the “FC A130012E19Rik 1440671_PM_at” value was 1.56 and the “FC AI845619 1442726_PM_s_at” value was 5.44. The “FC Aars 1451083_PM_s_at” value was 1.53, the “FC Abce1 1442071_PM_at” value was 1.53 and the “FC Acvr2b 1419140_PM_at” value was −1.51. For the same molecule, the “FC Adamts1 1450716_PM_at” value was 1.86, the “FC Adamts15 1427056_PM_at” value was −2.26 and the “FC Ahsa2 1435160_PM_at” value was 1.64. The “FC Aldh2 1437410_PM_at” value was 1.69, the “FC Alkbh1 1434660_PM_at” value was 1.53 and the “FC Anxa7 1438764_PM_at” value was 1.88. The “FC Aox1 (1419435_PM_at)” value was 2.46, the “FC Arl5b 1437884_PM_at” value was 1.93 and the “FC Arpc5l 1441190_PM_at” value was 1.70. The “FC Asns 1433966_PM_x_at” value was 2.54, the “FC Asns 1451095_PM_at” value was 3.03 and the “FC Atf4 1438992_PM_x_at” value was 1.77. The “FC Atf4 1448135_PM_at” value was 2.12, the “FC Atp1a2 1452308_PM_a_at” value was 1.84 and the “FC BC005512 /// F630007L15Rik /// Gm6958 1426936_PM_at” value was −1.67. The “FC BC005512 /// F630007L15Rik /// Gm6958 1435628_PM_x_at” value was −1.72, the “FC BC026585 1445857_PM_at” value was −1.51 and the “FC BC031353 1439293_PM_at” value was −1.84. The “FC Bach1 1440831_PM_at” value was 1.90, the “FC Bach1 1449311_PM_at” value was 2.55 and the “FC Bag3 1422452_PM_at” value was 2.03. For the same molecule, the “FC Baiap2 1425656_PM_a_at” value was 1.51, the “FC Baz1a 1433599_PM_at” value was 2.51 and the “FC Baz1a /// LOC100505185 1447930_PM_at” value was 2.56. The “FC Bcl11b 1438784_PM_at” value was −1.52, the “FC Brd2 1423502_PM_at” value was 1.83 and the “FC Brd2 1437210_PM_a_at” value was 2.07. For the same molecule, the “FC Btbd10 1438578_PM_a_at” value was 1.60, the “FC C730027H18Rik 1442546_PM_at” value was −1.57 and the “FC Cars 1452394_PM_at” value was 1.63. The “FC Cbr3 (1427912_PM_at)” value was 3.04, the “FC Ccdc30 1430593_PM_at” value was −2.01 and the “FC Ccdc117 1452218_PM_at” value was 1.54. The “FC Cenpe 1435005_PM_at” value was −2.20, the “FC Chac1 1451382_PM_at” value was 31.00 and the “FC Chd1 1420990_PM_at” value was 1.76. For the same molecule, the “FC Chd1 1450077_PM_at” value was 1.67, the “FC Cltc 1439094_PM_at” value was 2.07 and the “FC Cyp27b1 1427372_PM_at” value was −3.22. The “FC Cyr61 1438133_PM_a_at” value was 2.64, the “FC D16Ertd778e 1445089_PM_at” value was −2.60 and the “FC Dcbld1 1418966_PM_a_at” value was 1.78. The “FC Ddit3 1443897_PM_at” value was 3.97, the “FC Dnaja4 1434196_PM_at” value was 1.63 and the “FC Dnajb4 1431734_PM_a_at” value was 2.15. For the same molecule, the “FC Dnajb4 1451177_PM_at” value was 2.48, the “FC Dusp4 1428834_PM_at” value was 2.09 and the “FC Dusp5 1437199_PM_at” value was 3.68. The “FC E130306D19Rik 1436725_PM_at” value was −1.64, the “FC Eid3 1429350_PM_at” value was 1.84 and the “FC Eif2c3 1435904_PM_at” value was 1.53. For the same molecule, the “FC Esd (1441604_PM_at)” value was 1.62, the “FC Fam126a 1450724_PM_at” value was 1.70 and the “FC Fbxo30 1436550_PM_at” value was 1.81. For the same molecule, the “FC Fgd3 1433398_PM_at” value was 1.66, the “FC Fgf1 1441042_PM_at” value was −2.91 and the “FC Fgfbp1 1419086_PM_at” value was 1.81. The “FC Fn3k 1442436_PM_at” value was −1.60, the “FC Fras1 1440765_PM_at” value was −1.73 and the “FC Gadd45a 1449519_PM_at” value was 1.75. For the same molecule, the “FC Gclc (1424296_PM_at)” value was 1.70, the “FC Gdap10 1420342_PM_at” value was 1.52 and the “FC Gdf15 1418949_PM_at” value was 5.39. For the same molecule, the “FC Gm10374 1436357_PM_at” value was −1.52, the “FC Gm10804 1441759_PM_at” value was −1.67 and the “FC Gsta3 (1423437_PM_at)” value was 2.01. For the same molecule, the “FC Gt(ROSA)26Sor 1452239_PM_at” value was 1.62, the “FC Hectd2 1433944_PM_at” value was 1.67 and the “FC Hinfp 1440255_PM_at” value was 1.57. The “FC Hk2 1422612_PM_at” value was 2.72, the “FC Hmox1 1448239_PM_at” value was 6.27 and the “FC Hnf1b 1421224_PM_a_at” value was −1.77. For the same molecule, the “FC Hnf1b 1451687_PM_a_at” value was −1.82, the “FC Hsp90aa1 1426645_PM_at” value was 1.64 and the “FC Hsp90aa1 1437497_PM_a_at” value was 1.55. The “FC Hspa1a 1452388_PM_at” value was 2.35, the “FC Hspa1b 1427126_PM_at” value was 3.65 and the “FC Hspa1b 1427127_PM_x_at” value was 3.37. The “FC Hspa1b 1452318_PM_a_at” value was 1.70, the “FC Hspa4l 1439093_PM_at” value was 1.67 and the “FC Hspa8 /// LOC624853 1431182_PM_at” value was 2.63. The “FC Hsph1 1423566_PM_a_at” value was 2.40, the “FC Igf1r 1446303_PM_at” value was −1.66 and the “FC Jmjd6 1420056_PM_s_at” value was 1.52. For the same molecule, the “FC Jmjd6 1420057_PM_at” value was 1.54 and the “FC Jun 1448694_PM_at” value was 1.50.
